Values after ≈ are worked out from the molar mass of the structure shown. Active and inactive are the calls of the source. The rule behind the calls is not given here.
What was measured:
[1] = in vitro; conditions: pig
[2] = in vitro; conditions: human
[3] = in vitro; conditions: mouse
[4] = in vitro; conditions: pig; remark: listed apart in the source
[5] = in vitro; conditions: mouse; remark: listed apart in the source
[6] = in vitro; conditions: human; remark: listed apart in the source
[7] = system: Enterococcus faecium; assay: Antibacterial activity against Linezolid/Ampicillin/ciprofloxacin/Vancomycin-resistant Enterococcus faecium assessed as inhibition of visible growth incubated for 20 to 24 hrs by microbroth serial dilution assay; type: functional; conditions: time 20-24 hrs, read-out: MIC100
[8] = system: Streptococcus pneumoniae; assay: Antibacterial activity against Streptococcus pneumoniae assessed as inhibition of visible growth incubated for 20 to 24 hrs by microbroth serial dilution assay; type: functional; conditions: time 20-24 hrs, read-out: MIC100
[9] = system: Enterococcus faecalis; assay: Antibacterial activity against Enterococcus faecalis assessed as inhibition of visible growth incubated for 20 to 24 hrs by microbroth serial dilution assay; type: functional; conditions: time 20-24 hrs, read-out: MIC100
[10] = Inhibition of P-gp efflux in MDCKII-MDR1 cells using calcein-AM as substrate assessed as intracellular calcein fluorescence preincubated for 15 mins followed by substrate addition and measured by fluorescence based assay; type: cell-based; conditions: Canis lupus familiaris
[11] = system: Enterococcus faecium; assay: Antibacterial activity against Vancomycin-resistant Enterococcus faecium assessed as inhibition of visible growth incubated for 20 to 24 hrs by microbroth serial dilution assay; type: functional; conditions: time 20-24 hrs, read-out: MIC100
[12] = system: MDCK-MDR1; assay: Cytotoxicity against MDCKII-MDR1 cells assessed as cell viability at 100 uM measured by MTT assay; type: toxicity, cell-based, Canis lupus familiaris; conditions: dog, mdck-mdr1, 100 µM
[13] = system: Staphylococcus aureus; assay: Antibacterial activity against multi drug-resistant Staphylococcus aureus USA300 FPR3757 assessed as inhibition of visible growth incubated for 20 to 24 hrs by microbroth serial dilution assay; type: functional; conditions: time 20-24 hrs, read-out: MIC100
[14] = Solubility of the compound in Dulbecco's PBS at 20 degree C measured after 24 hrs
[15] = system: Staphylococcus epidermidis; assay: Antibacterial activity against Staphylococcus epidermidis assessed as inhibition of visible growth incubated for 20 to 24 hrs by microbroth serial dilution assay; type: functional, organism-based; conditions: time 20-24 hrs
[16] = system: Escherichia coli; assay: Antibacterial activity against Escherichia coli assessed as inhibition of visible growth incubated for 20 to 24 hrs by microbroth serial dilution assay; type: functional, organism-based; conditions: time 20-24 hrs
[17] = system: Listeria; assay: Antibacterial activity against Listeria assessed as inhibition of visible growth incubated for 20 to 24 hrs by microbroth serial dilution assay; type: functional, organism-based; conditions: time 20-24 hrs
[18] = system: Staphylococcus aureus; assay: (§1) Induction of resistant development in lefamulin 5 passages resistance developed Staphylococcus aureus USA300 FPR3757 assessed as fold increase in MIC at sub-MIC concentration measured after 22 passages with conjugate by serial passage assay; type: functional
[19] = system: Staphylococcus aureus; assay: as §1, with “-(6-(6-(Piperazin-1-y1)-9H-purin-9-y)methyl)pyridin-3-y1)-1H-1,2,3-triazol-1-yl)-22-deoxypleuromutilin-16” for “lefamulin 5”; type: functional
[20] = system: Staphylococcus aureus; assay: as §1, with “-(6-(6-(Piperazin-1-y1)-9H-purin-9-y)methyl)pyridin-3-y1)-1H-1,2,3-triazol-1-yl)-22-deoxypleuromutilin-16” for “lefamulin 5”, “25” for “22”; type: functional
[21] = system: Staphylococcus aureus; assay: as §1, with “-(6-(6-(Piperazin-1-y1)-9H-purin-9-y)methyl)pyridin-3-y1)-1H-1,2,3-triazol-1-yl)-22-deoxypleuromutilin-16” for “lefamulin 5”, “28” for “22”; type: functional
[22] = system: Staphylococcus aureus; assay: Induction of resistant development in lefamulin 5 passages resistance developed Staphylococcus aureus USA300 FPR3757 assessed as fold increase in MIC at sub-MIC concentration measured after 28 passages with conjugate by serial passage assay; type: functional
[23] = system: Staphylococcus aureus; assay: (§2) Induction of resistant development in lefamulin 5 passages resistance developed Staphylococcus aureus USA300 FPR3757 assessed as fold increase in MIC at sub-MIC concentration measured after 5 passages with conjugate by serial passage assay; type: functional
[24] = system: Staphylococcus aureus; assay: as §2, with “in -(6-(6-(Piperazin-1-y1)-9H-purin-9-y)methyl)pyridin-3-y1)-1H-1,2,3-triazol-1-yl)-22-deoxypleuromutilin-16” for “in lefamulin 5”, “after 9” for “after 5”; type: functional
[25] = system: Staphylococcus aureus; assay: as §2, with “in -(6-(6-(Piperazin-1-y1)-9H-purin-9-y)methyl)pyridin-3-y1)-1H-1,2,3-triazol-1-yl)-22-deoxypleuromutilin-16” for “in lefamulin 5”, “after 18” for “after 5”; type: functional
[26] = system: Staphylococcus aureus; assay: Induction of resistant development in linezolid 5 passages resistance developed Staphylococcus aureus USA300 FPR3757 assessed as fold increase in MIC at sub-MIC concentration measured after 22 passages with conjugate by serial passage assay; type: functional
[27] = system: Staphylococcus aureus; assay: (§3) Induction of resistant development in lefamulin 5 passages resistance developed Staphylococcus aureus USA300 FPR3757 assessed as fold increase in MIC at sub-MIC concentration measured after 13 passages with conjugate by serial passage assay; type: functional
[28] = system: Staphylococcus aureus; assay: Induction of resistant development in linezolid 5 passages resistance developed Staphylococcus aureus USA300 FPR3757 assessed as fold increase in MIC at sub-MIC concentration measured after 9 passages with conjugate by serial passage assay; type: functional
[29] = system: Staphylococcus aureus; assay: Induction of resistant development in linezolid 5 passages resistance developed Staphylococcus aureus USA300 FPR3757 assessed as fold increase in MIC at sub-MIC concentration measured after 28 passages with conjugate by serial passage assay; type: functional
[30] = system: Staphylococcus aureus; assay: Induction of resistant development in lefamulin 5 passages resistance developed Staphylococcus aureus USA300 FPR3757 assessed as fold increase in MIC at sub-MIC concentration measured after 25 passages with conjugate by serial passage assay; type: functional
[31] = system: Staphylococcus aureus; assay: Induction of resistant development in linezolid 5 passages resistance developed Staphylococcus aureus USA300 FPR3757 assessed as fold increase in MIC at sub-MIC concentration measured after 25 passages with conjugate by serial passage assay; type: functional
[32] = system: Staphylococcus aureus; assay: as §3, with “-(6-(6-(Piperazin-1-y1)-9H-purin-9-y)methyl)pyridin-3-y1)-1H-1,2,3-triazol-1-yl)-22-deoxypleuromutilin-16” for “lefamulin 5”; type: functional
[33] = system: Staphylococcus aureus; assay: Induction of resistant development in lefamulin 5 passages resistance developed Staphylococcus aureus USA300 FPR3757 assessed as fold increase in MIC at sub-MIC concentration measured after 9 passages with conjugate by serial passage assay; type: functional
[34] = system: Staphylococcus aureus; assay: Induction of resistant development in linezolid 5 passages resistance developed Staphylococcus aureus USA300 FPR3757 assessed as fold increase in MIC at sub-MIC concentration measured after 5 passages with conjugate by serial passage assay; type: functional
[35] = system: Staphylococcus aureus; assay: as §2, with “-(6-(6-(Piperazin-1-y1)-9H-purin-9-y)methyl)pyridin-3-y1)-1H-1,2,3-triazol-1-yl)-22-deoxypleuromutilin-16” for “lefamulin 5”; type: functional
[36] = system: Staphylococcus aureus; assay: Induction of resistant development in lefamulin 5 passages resistance developed Staphylococcus aureus USA300 FPR3757 assessed as fold increase in MIC at sub-MIC concentration measured after 18 passages with conjugate by serial passage assay; type: functional
[37] = system: Staphylococcus aureus; assay: Induction of resistant development in linezolid 5 passages resistance developed Staphylococcus aureus USA300 FPR3757 assessed as fold increase in MIC at sub-MIC concentration measured after 18 passages with conjugate by serial passage assay; type: functional
[38] = system: Staphylococcus aureus; assay: Induction of resistant development in linezolid 5 passages resistance developed Staphylococcus aureus USA300 FPR3757 assessed as fold increase in MIC at sub-MIC concentration measured after 13 passages with conjugate by serial passage assay; type: functional

Work on O=C(O)Cc1ccccc1Nc1c(Cl)cccc1Cl [DICLOFENAC] yielded a half-life at 0.5 h, 1 µM ([1]; microsomes) of 37.9 min, a CLint scaled at 0.5 h, 1 µM ([2]; microsomes) of 332 mL/min/kg and a CLint scaled at 0.5 h, 1 µM ([3]; microsomes) of 106 mL/min/kg. For the same molecule, the CLint scaled at 0.5 h, 1 µM ([4]; microsomes) was 145 mL/min/kg, the half-life at 0.5 h, 1 µM ([5]; microsomes) was 51.7 min and the half-life at 0.5 h, 1 µM ([6]; microsomes) was 18.8 min.
C=C[C@]1(C)C[C@@H](OC(=O)Cn2cc(-c3ccc(Cn4cnc5c(N)nc(N)nc54)cc3)nn2)[C@]2(C)[C@H](C)CC[C@]3(CCC(=O)[C@H]32)[C@@H](C)[C@@H]1O gave an MIC [7] of 0.12 µg/mL (≈ 0.18 µM), an MIC [8] of 0.5 µg/mL (≈ 0.749 µM) and an MIC [9] of 0.25 µg/mL (≈ 0.374 µM). For the same molecule, the IC50 [10] was greater than 100 µM, the MIC [11] was 0.12 µg/mL (≈ 0.18 µM) and the Activity [12] was “Non-Toxic”. It also gave an MIC [13] of 0.06 µg/mL (≈ 0.0898 µM) and a solubility at 24 h [14] of 1.9 µM (≈ 1.27 µg/mL).
C=C[C@]1(C)C[C@@H](OC(=O)Cn2cc(-c3ccc(Cn4cnc5c(N6CCN(C)CC6)ncnc54)cc3)nn2)[C@]2(C)[C@H](C)CC[C@]3(CCC(=O)[C@H]32)[C@@H](C)[C@@H]1O showed an MIC [7] of 0.12 µg/mL (≈ 0.163 µM), a half-life at 0.5 h, 1 µM ([1]; liver microsomes) of 0.5 min and an MIC [8] of 0.12 µg/mL (≈ 0.163 µM). For the same molecule, the IC50 [10] was 2 µM, the CLint scaled at 0.5 h, 1 µM ([2]; liver microsomes) was 4430 mL/min/kg and the Activity [15] was “inactive”. The Activity [16] was “inactive”, the CLint scaled at 0.5 h, 1 µM ([3]; liver microsomes) was 4880 mL/min/kg and the CLint scaled at 0.5 h, 1 µM ([4]; liver microsomes) was 10500 mL/min/kg. The half-life at 0.5 h, 1 µM ([5]; liver microsomes) was 1.1 min, the Activity [12] was “Non-Toxic” and the Activity [17] was “inactive”. The half-life at 0.5 h, 1 µM ([6]; liver microsomes) was 1.4 min.
Work on C=C[C@]1(C)C[C@@H](OC(=O)Cn2cc(-c3ccc([C@@H](C)n4cnc5c(N)ncnc54)cc3)nn2)[C@]2(C)[C@H](C)CC[C@]3(CCC(=O)[C@H]32)[C@@H](C)[C@@H]1O yielded an MIC [7] of 0.25 µg/mL (≈ 0.375 µM), an MIC [8] of 0.25 µg/mL (≈ 0.375 µM) and an MIC [9] of 0.5 µg/mL (≈ 0.75 µM). The IC50 [10] was 50 µM, the MIC [11] was 0.25 µg/mL (≈ 0.375 µM) and the MIC [13] was 0.12 µg/mL (≈ 0.18 µM). It also gave a solubility at 24 h [14] of 2.6 µM (≈ 1.73 µg/mL).
C=C[C@]1(C)C[C@@H](OC(=O)Cn2cc(-c3ccc([C@H](C)n4cnc5c(N)ncnc54)cc3)nn2)[C@]2(C)[C@H](C)CC[C@]3(CCC(=O)[C@H]32)[C@@H](C)[C@@H]1O showed an MIC [7] of 0.5 µg/mL (≈ 0.75 µM), an MIC [8] of 1 µg/mL (≈ 1.5 µM) and an MIC [9] of 1 µg/mL (≈ 1.5 µM). The IC50 [10] was 81 µM, the MIC [11] was 0.5 µg/mL (≈ 0.75 µM) and the MIC [13] was 0.12 µg/mL (≈ 0.18 µM).
CC(=O)NC[C@H]1CN(c2ccc(N3CCOCC3)c(F)c2)C(=O)O1 showed a fold change (FC) [18] of 2, a fold change (FC) [19] of 8 and a fold change (FC) [20] of 8. For the same molecule, the fold change (FC) [21] was 16, the fold change (FC) [22] was 2 and the fold change (FC) [23] was 8. For the same molecule, the fold change (FC) [24] was 4, the fold change (FC) [25] was 4 and the fold change (FC) [26] was 32. The fold change (FC) [27] was 4, the fold change (FC) [28] was 4 and the fold change (FC) [29] was 32. The fold change (FC) [30] was 2, the fold change (FC) [31] was 32 and the fold change (FC) [32] was 4. The fold change (FC) [33] was 2, the fold change (FC) [34] was 4 and the fold change (FC) [35] was 8. It also gave a fold change (FC) [36] of 2, a fold change (FC) [37] of 16 and a fold change (FC) [38] of 8.

From ChEMBL document CHEMBL5518206, “Hit-to-Lead Identification and Validation of a Triaromatic Pleuromutilin Antibiotic Candidate” (J Med Chem, 2024)
